Test results taken from patent US20060210479A1 (Dow Global Technologies Inc., priority 2004, published 2006).
Like-named read-outs stand apart in the source and are kept apart here.

Assays:
[1] = target: HSPC194 (Homo sapiens, UniProt Q9P0S9); conditions: LNCaP, T84, Caco-2, RBL-2H3; 2 hours
Procedure: Cell samples were lysed in parallel by sonication or by lysis in hypotonic buffer. Cell fractions were collected from discontinuous sucrose gradients and from separate Percoll gradients, after ultracentrifugation.
Following fractionation, each sample was lyophilized to enrich the sample.
The resulting tryptic peptides were analyzed directly by mass spectrometry. Peptide mass fingerprints were generated for the identification of the protein, and MALDI-PSD was used to sequence Fragments T3, T4, T5, and T6. The resulting data were used to search GenBank for a human protein having or a nucleic acid encoding, an amino acid sequence matching this set of peptides.

[2] = test system: etoposide-induced (apoptotic) HEK293 cells; experiment: Permeability of chelates to apoptotic cells, fluorescence of fractions; type: cell-based, human
Procedure: (§1) The human kidney transformed HEK293 cells (obtained from the ATCC) were grown in Eagle's Minimum Essential Medium (EMEM) supplemented with 10% (v/v) heat-inactivated fetal bovine serum, sodium pyruvate, nonessential amino acids and antibiotics in a humidified 5% CO2 atmosphere at 37° C. Medium and supplements were purchased from Gibco bRL (Grand Island, N.Y.). Etoposide was obtained from Sigma (St. Louis, Mo.) and prepared as 20 mM solution in dimethyl sulfoxide (DMSO). For treatments, etoposide was applied to the HEK293 cultures at 1:1000 dilution (final concentration of 20 μM) after cell became 75% confluent. As a control, cells were fed with medium containing 0.1% DMSO in the absence of etoposide. After treatment with etoposide, cells were incubated in a humidified 5% CO2 at 37° C. for 24 hours. HEK293 cells were collected by removing treatment medium and washed 2 times with 10 mM HEPES buffer. Final cell pellets were resuspended in a small amount of HEPES and stored at 4° C. for further study.
(§2) Cells were grown to confluence in T-150 flasks (about 2×10^6 cells). […] After treatment, the chelate or analogue supernatant was discarded and the cells were rinsed three times at room temperature with 10 mM HEPES. Cells were then removed from the flask by manual scraping. Cells were transferred to a 50-mL conical tube and centrifuged (400×g) for 5 minutes and the test material removed. Remaining cells were rinsed twice with cold 10 mM HEPES. Cells were used in cell binding assays.

[3] = test system: normal cheek pouch tissue; conditions: 2 mM solution topical, 10 minutes, readings Adjusted Volume CNT*mm2
[4] = test system: T84 cell line; experiment: Chelate permeability: fluorescence of cytoplasm and membrane fractions; type: cell-based, human; conditions: 1 mM chelate, 2 h, Table 1
[5] = test system: PZ-HPV-7 normal cell line; experiment: as above; type: cell-based; conditions: PZ-HPV-7
[6] = test system: HEK293 cells, normal (non-induced); experiment: Permeability of chelates to HEK293 cells, fluorescence of fractions; type: cell-based, human; conditions: HEK293 Normal; 1 mM chelate, 2 hours
Procedure: as §1, §2

[7] = test system: LNCaP cell line; experiment: Chelate permeability: fluorescence of cytoplasm and membrane fractions; type: cell-based, human
[8] = test system: DMBA-induced tumor tissue of buccal cheek pouch; conditions: 2 mM solution topical, 10 minutes; for Fluorescence/mg Cytoplasm / Fluorescence/mg Membrane: readings Adjusted Volume CNT*mm2
[9] = test system: cancer cells (LNCaP, Caco-2, T84); experiment: Chelate permeability and specificity, cancer cells versus normal cells (summary); type: cell-based, human; conditions: cancer cells
[10] = test system: cancer cell lines (LNCaP, T84, Caco-2, RBL-2H3) and healthy control cells
[11] = test system: RBL-2H3 cell line; experiment: Chelate permeability: fluorescence of cytoplasm and membrane fractions; type: cell-based, rat; conditions: 0-2000 μM, 2 hours
Procedure: Tb-PCTMB (Tb(III) 3,6,9-tris(methylene phosphonic acid n-butyl ester)-3,6,9,15-tetraazabicyclo[9.3.1]pentadeca-1(15),11,13-triene) was tested for permeability to abnormal and disease-state cells.
RBL-2H3 is a rat basophilic leukemia cell line. These cells were grown in Iscove's Medium supplemented with 2 mM L-glutamnine, penicillin/streptomycin (100 IU/mL, 100 μg/mL) and 10% FBS. Cells were maintained at 5% CO2 and 95% humidity. PZ-HPV-7 cell line was derived from epithelial cells cultured from normal prostate tissue. They were grown in Keratinocyte-Serum Free Medium with human recombinant EGF and bovine pituitary extract supplemented with 50 μg/mL gentamicin and penicillin/streptomycin (100 IU/mL, 100 μg/mL). All media and supplements were purchased from Gibco BRL (Grand Island, N.Y., USA). All cell lines were obtained from ATCC and were maintained at 37° C., 5% CO2 and 95% humidity.
Cells were grown to confluence in T-150 flasks (about 2×10^6 cells). […] Cells were then removed from the flask by manual scraping. Cells were transferred to a 50-mL conical tube and centrifuged (400×g) for 5 minutes and the test material removed.
Cells were grown as described herein (Example 1). Cells were grown to confluence in T-150 flask (about 2×10^6 cells). […] Cells were then removed from the flask by manual scraping. Cells were transferred to a 50-mL conical tube and centrifuged (400×g) for 5 minutes and the test material removed.
Furthermore, one analogue, QCTMP (FIG. 26), having lesser lipophilic character (a free phosphonic acid moiety) was evaluated. […] In this study, the cytoplasm and membrane fractions were extracted by Mem-PER Eukaryotic Membrane Protein Extraction Reagent Kit as described by the manufacturers (Pierce Biotechnology, Rockford, Ill.) and analyzed by a Fluor-S Multilmager.

[12] = test system: Caco-2 cell line; experiment: as above; type: cell-based, human
[13] = 0-2000 μM, 2 hours, compared to PZ-HPV-7

Sequence of HSPC194 (Q9P0S9 whole entry): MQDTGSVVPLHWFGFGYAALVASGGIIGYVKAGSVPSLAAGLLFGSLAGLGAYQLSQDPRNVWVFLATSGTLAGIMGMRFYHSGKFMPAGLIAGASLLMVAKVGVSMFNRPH

## CCCCOP(=O)([O-])CN1CCN(CP(=O)([O-])OCCCC)Cc2cccc(n2)CN(CP(=O)([O-])OCCCC)CC1.[Tb+3] [Tb-PCTMB, Tb(III) 3,6,9-tris(methylenephosphonic acid n-butyl ester)-3,6,9,15-tetraazabicyclo[9.3.1]pentadeca-1(15),11,13-triene]
[1]
  binding to protein expressed in cancer cell lines (HSPC194, about 15 kDa): binds specifically to a single protein
[2]
  permeability to apoptotic induced HEK293 cells: permeable
[2]; HEK293 Apoptotic (etoposide 20 μM, 24 hours), 1 mM chelate, 2 hours
  Fluorescence/mg Membrane: 949
[3]; Normal 1
  Fluorescence/mg Cytoplasm: 1138
  Fluorescence/mg Membrane: 1126
[3]; Normal 2
  Fluorescence/mg Cytoplasm: 1117
  Fluorescence/mg Membrane: 1125
[4]
  Fluorescence/mg Cytoplasm: 476.4
  Fluorescence/mg Membrane: 355.5
[5]
  detectability in normal cells: significantly less detectable
[6]
  Fluorescence/mg Membrane: 925
[7]; [13]
  fluorescence in the cytoplasm, dose response: significant increases in fluorescence
[7]; 1 mM chelate, 2 h, Table 1
  Fluorescence/mg Cytoplasm: 616.8
  Fluorescence/mg Membrane: 448.9
[8]
  fluorescence in the cytoplasm of tumor tissue compared to normal tissue: significantly greater fluorescence
[8]; Tumor 1
  Fluorescence/mg Cytoplasm: 3014
  Fluorescence/mg Membrane: 1331
[8]; Tumor 2
  Fluorescence/mg Cytoplasm: 3064
  Fluorescence/mg Membrane: 1484
[9]
  permeability to cell membranes: permeable to cancer cell membranes
[10]
  localization in cancer cell lines, confocal fluorescence microscopy: localized throughout the cytoplasm
  presence in healthy (control) cells, confocal fluorescence microscopy: not present
[11]
  fluorescence in the membrane fractions, dose response: detectable quantity of fluorescence
[11]; compared to PZ-HPV-7
  fluorescence in the cytoplasm, dose response: significant increases in fluorescence
[12]; 0-2000 μM, 2 hours
  fluorescence in the membrane fractions, dose response: detectable quantity of fluorescence
[12]; [13]
  fluorescence in the cytoplasm, dose response: significant increases in fluorescence
[12]; 1 mM chelate, 2 h, Table 1
  Fluorescence/mg Cytoplasm: 481.6
  Fluorescence/mg Membrane: 398.6
